According to PubChem BioAssay (NCI):
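These data come from cells grown in 96-well plates and exposed to compound for 48 hours at five concentrations. GI50 is the concentration that inhibits growth by half. At the TGI there is no net growth.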

Columns and labels:
Assay in all cases: inhibition of tumour cell growth, NCI panel, 48 h
M14 melanoma = tested on: M14 melanoma
NCI-H522 lung = tested on: NCI-H522 lung
HL-60(TB) leukemia = tested on: HL-60(TB) leukemia
NCI/ADR-RES ovarian = tested on: NCI/ADR-RES ovarian
NCI-H460 lung = tested on: NCI-H460 lung
MDA-MB-435 = tested on: MDA-MB-435
HT29 colon = tested on: HT29 colon
SK-MEL-28 melanoma = tested on: SK-MEL-28 melanoma
CAKI-1 renal = tested on: CAKI-1 renal
OVCAR-8 ovarian = tested on: OVCAR-8 ovarian
HCT-15 colon = tested on: HCT-15 colon
SK-OV-3 ovarian = tested on: SK-OV-3 ovarian
NCI-H226 lung = tested on: NCI-H226 lung
UO-31 renal = tested on: UO-31 renal
IGROV1 ovarian = tested on: IGROV1 ovarian
CCRF-CEM leukemia = tested on: CCRF-CEM leukemia
SF-268 CNS = tested on: SF-268 CNS
PC-3 prostate = tested on: PC-3 prostate
HOP-62 NSCLC = tested on: HOP-62 NSCLC
T-47D breast = tested on: T-47D breast
A549 NSCLC = tested on: A549 NSCLC
ACHN renal = tested on: ACHN renal
UACC-257 melanoma = tested on: UACC-257 melanoma
SF-539 CNS = tested on: SF-539 CNS
HS 578T breast = tested on: HS 578T breast
HOP-92 NSCLC = tested on: HOP-92 NSCLC
SNB-75 CNS = tested on: SNB-75 CNS
HCC-2998 colon = tested on: HCC-2998 colon
SNB-19 CNS = tested on: SNB-19 CNS
SK-MEL-5 melanoma = tested on: SK-MEL-5 melanoma

For `O=C(c1ccccc1)c1ccc2nc(-c3ccccc3Br)[nH]c2c1`, the TGI (M14 melanoma) was 4.38 µM, the GI50 (NCI-H522 lung) was 1.53 µM and the TGI (NCI-H522 lung) was 3.07 µM. For the same molecule, the GI50 (HL-60(TB) leukemia) was 2.04 µM, the TGI (HL-60(TB) leukemia) was 6.05 µM and the GI50 (NCI/ADR-RES ovarian) was 2.44 µM. For the same molecule, the TGI (NCI/ADR-RES ovarian) was 6.66 µM, the GI50 (NCI-H460 lung) was 4.22 µM and the TGI (NCI-H460 lung) was 19.8 µM. For the same molecule, the GI50 (MDA-MB-435) was 3.54 µM, the TGI (MDA-MB-435) was 13.2 µM and the GI50 (HT29 colon) was 2.27 µM. It also gave a TGI (HT29 colon) of 4.63 µM, a GI50 (SK-MEL-28 melanoma) of 3.69 µM and a TGI (SK-MEL-28 melanoma) of 14.7 µM. The GI50 (CAKI-1 renal) was 3.24 µM, the TGI (CAKI-1 renal) was 11.3 µM and the GI50 (OVCAR-8 ovarian) was 3.81 µM. It also gave a TGI (OVCAR-8 ovarian) of 35.4 µM, a GI50 (HCT-15 colon) of 1.74 µM and a TGI (HCT-15 colon) of 3.78 µM. For the same molecule, the GI50 (SK-OV-3 ovarian) was 4.1 µM, the TGI (SK-OV-3 ovarian) was 12.6 µM and the GI50 (NCI-H226 lung) was 2.66 µM. It also gave a TGI (NCI-H226 lung) of 12.2 µM, a GI50 (UO-31 renal) of 4.95 µM and a TGI (UO-31 renal) of 17.4 µM. It also gave a GI50 (IGROV1 ovarian) of 3.51 µM, a TGI (IGROV1 ovarian) of 13.9 µM and a GI50 (CCRF-CEM leukemia) of 2.24 µM. It also gave a TGI (CCRF-CEM leukemia) of 15.9 µM, a GI50 (SF-268 CNS) of 3.1 µM and a TGI (SF-268 CNS) of 12.3 µM. It also gave a GI50 (PC-3 prostate) of 2.48 µM, a TGI (PC-3 prostate) of 10.8 µM and a GI50 (HOP-62 NSCLC) of 3.23 µM. For the same molecule, the TGI (HOP-62 NSCLC) was 8.5 µM, the GI50 (T-47D breast) was 2.89 µM and the TGI (T-47D breast) was 11.3 µM. The GI50 (A549 NSCLC) was 10.2 µM, the TGI (A549 NSCLC) was 28.2 µM and the GI50 (ACHN renal) was 2.27 µM. It also gave a TGI (ACHN renal) of 5.67 µM, a GI50 (UACC-257 melanoma) of 2.59 µM and a TGI (UACC-257 melanoma) of 12.7 µM. The GI50 (SF-539 CNS) was 1.77 µM, the TGI (SF-539 CNS) was 3.33 µM and the GI50 (HS 578T breast) was 3.79 µM. It also gave a TGI (HS 578T breast) of 54 µM, a GI50 (HOP-92 NSCLC) of 2.08 µM and a TGI (HOP-92 NSCLC) of 6.48 µM. The GI50 (SNB-75 CNS) was 3.23 µM, the TGI (SNB-75 CNS) was 13.4 µM and the GI50 (HCC-2998 colon) was 8.69 µM. For the same molecule, the TGI (HCC-2998 colon) was 21.7 µM, the GI50 (SNB-19 CNS) was 4.41 µM and the TGI (SNB-19 CNS) was 16.8 µM. It also gave a GI50 (SK-MEL-5 melanoma) of 1.85 µM and a TGI (SK-MEL-5 melanoma) of 3.79 µM.
